Our source for the inhibition and IC50 values is patent publication US7473790B2 (Pfizer Inc., priority 2003, dated 2009).

The target in the first experiment is T1, HCV polymerase (Hepatitis C virus genotype 1b, UniProt P26663).
T1 construct: 2.5 pmoles (0.15 μg) HCV polymerase protein in a final volume of 75 μL
T1 sequence (P26663 2420-3010): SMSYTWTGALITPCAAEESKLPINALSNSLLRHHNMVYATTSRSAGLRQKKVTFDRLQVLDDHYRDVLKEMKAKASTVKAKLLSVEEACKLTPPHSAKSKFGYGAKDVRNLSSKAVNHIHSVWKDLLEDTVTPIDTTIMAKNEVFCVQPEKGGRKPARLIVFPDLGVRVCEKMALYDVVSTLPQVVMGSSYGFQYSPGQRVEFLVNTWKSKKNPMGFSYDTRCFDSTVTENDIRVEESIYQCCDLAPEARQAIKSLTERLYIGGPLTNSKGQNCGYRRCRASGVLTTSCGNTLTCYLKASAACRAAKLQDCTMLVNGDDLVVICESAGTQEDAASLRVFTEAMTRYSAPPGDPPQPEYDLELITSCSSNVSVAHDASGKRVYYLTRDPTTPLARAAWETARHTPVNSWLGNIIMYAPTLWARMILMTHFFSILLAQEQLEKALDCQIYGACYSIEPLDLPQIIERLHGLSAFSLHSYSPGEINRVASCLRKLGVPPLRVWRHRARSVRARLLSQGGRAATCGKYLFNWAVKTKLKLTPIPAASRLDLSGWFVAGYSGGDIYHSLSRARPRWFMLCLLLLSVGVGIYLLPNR
Kind of experiment: HCV polymerase primer/template-directed transcription assay (32P-GTP incorporation, filter binding). The class given is biochemical. Conditions: @ 20 uM compound; given where IC50 was impractical to calculate; read-out: percent inhibition. The gist of the method:
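Recombinant genotype 1b polymerase (30 nM) extended biotin-dG12 primer on poly(rC)300 template with 1 μM GTP plus α-32P-GTP, pH 7.2, 10 mM MgCl2, 30 min at 30° C, 1% DMSO final. Products captured on DE filters and counted. IC50 fitted from triplicate cpm, with a tight-binding correction applied below 200 nM.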
In the case of `COc1ccc(CCC2(C3CCCC3)CC(OCc3cccnc3)=CC(=O)O2)cc1Cl` (stereo not drawn) [G(1), 6-[2-(3-chloro-4-methoxyphenyl)ethyl]-6-cyclopentyl-4-(pyridin-3-ylmethoxy)-5,6-dihydro-2H-pyran-2-one], the inhibition at 20 µM was 16%. Still for that read-out and setting: for `COc1ccc(CCC2(C3CCCC3)CC(OCc3ccccn3)=CC(=O)O2)cc1Cl` (stereo not drawn) [G(2), 6-[2-(3-Chloro-4-methoxy-phenyl)-ethyl]-6-cyclopentyl-4-(pyridin-2-ylmethoxy)-5,6-dihydro-pyran-2-one] the value was 3%.

Staying with this experiment, now noted: @ 50 uM compound; given where IC50 was impractical to calculate; read-out: percent inhibition.
For the compound `O=C(O)CC(O)(CCNC(=O)CCc1ccco1)C1CCCC1` (stereo not drawn) [H(5), 3-Cyclopentyl-5-(3-furan-2-yl-propionylamino)-3-hydroxy-pentanoic acid], the inhibition at 50 µM is 7%.

The experiment is the same for the next values; noted with them: recombinant HCV polymerase; 30 minutes at 30° C.; concentration giving 50% inhibition of polymerase-directed transcription; read-out: IC50.
Take `COc1ccc(CCC2(C3CCCC3)CC(O)=C(Sc3nc4ncc(C)cn4n3)C(=O)O2)cc1Cl` (stereo not drawn) [C(98), 6-[2-(3-chloro-4-methoxyphenyl)ethyl]-6-cyclopentyl-4-hydroxy-3-[(6-methyl[1,2,4]triazolo[1,5-a]pyrimidin-2-yl)thio]-5,6-dihydro-2H-pyran-2-one]: the half-inhibitory concentration (IC50) came to 68 nM.

As to `COc1ccc(CCC2(C3CCCC3)CC(O)=C(Sc3nnc(C)n3C)C(=O)O2)cc1Cl` (stereo not drawn) [C(99), 6-[2-(3-chloro-4-methoxyphenyl)ethyl]-6-cyclopentyl-3-[(4,5-dimethyl-4H-1,2,4-triazol-3-yl)thio]-4-hydroxy-5,6-dihydro-2H-pyran-2-one], the IC50 was found to be 79 nM. The same measure, in the same setting: for `COC(=O)c1nnc(SC2=C(O)CC(CCc3ccc(OC)c(Cl)c3)(C3CCCC3)OC2=O)n1C` (stereo not drawn) [C(100), methyl 5-({6-[2-(3-chloro-4-methoxyphenyl)ethyl]-6-cyclopentyl-4-hydroxy-2-oxo-5,6-dihydro-2H-pyran-3-yl}thio)-4-methyl-4H-1,2,4-triazole-3-carboxylate] the value was 32 nM; for `COc1ccc(CCC2(C3CCCC3)CC(O)=C(Sc3nccn3C)C(=O)O2)cc1Cl` (stereo not drawn) [C(101), 6-[2-(3-chloro-4-methoxyphenyl)ethyl]-6-cyclopentyl-4-hydroxy-3-[(1-methyl-1H-imidazol-2-yl)thio]-5,6-dihydro-2H-pyran-2-one], 140 nM.

As to `COc1ccc(CCC2(C3CCCC3)CC(O)=C(Sc3nncn3C)C(=O)O2)cc1Cl` (stereo not drawn) [C(102), 6-[2-(3-chloro-4-methoxyphenyl)ethyl]-6-cyclopentyl-4-hydroxy-3-[(4-methyl-4H-1,2,4-triazol-3-yl)thio]-5,6-dihydro-2H-pyran-2-one], the IC50 turned out to be 38 nM. On to `COc1ccc(CCC2(C3CCCC3)CC(O)=C(Sc3ncc[nH]3)C(=O)O2)cc1Cl` (stereo not drawn) [C(103), 6-[2-(3-chloro-4-methoxyphenyl)ethyl]-6-cyclopentyl-4-hydroxy-3-(1H-imidazol-2-ylthio)-5,6-dihydro-2H-pyran-2-one], for which the IC50 came out at 240 nM. Still for that read-out and setting: for `COc1ccc(CCC2(C3CCCC3)CC(O)=C(Sc3nnc(-c4ccncc4)o3)C(=O)O2)cc1Cl` (stereo not drawn) [C(104), 6-[2-(3-chloro-4-methoxyphenyl)ethyl]-6-cyclopentyl-4-hydroxy-3-[(5-pyridin-4-yl-1,3,4-oxadiazol-2-yl)thio]-5,6-dihydro-2H-pyran-2-one] the value was 310 nM. Consider `COc1ccc(CCC2(C3CCCC3)CC(O)=C(Sc3nc(C)cc(C)c3C#N)C(=O)O2)cc1Cl` (stereo not drawn) [C(105), 2-({6-[2-(3-chloro-4-methoxyphenyl)ethyl]-6-cyclopentyl-4-hydroxy-2-oxo-5,6-dihydro-2H-pyran-3-yl}thio)-4,6-dimethylnicotinonitrile], for which the concentration for half-maximal inhibition (IC50) was found to be 200 nM.

As for `COc1ccc(CCC2(C3CCCC3)CC(O)=C(Sc3nc(-c4ccccc4)cs3)C(=O)O2)cc1Cl` (stereo not drawn) [C(106), 6-[2-(3-chloro-4-methoxyphenyl)ethyl]-6-cyclopentyl-4-hydroxy-3-[(4-phenyl-1,3-thiazol-2-yl)thio]-5,6-dihydro-2H-pyran-2-one], the IC50 turned out to be 240 nM. The same measure, in the same setting: the figure for `COc1ccc(CCC2(C3CCCC3)CC(O)=C(SCc3ccccn3)C(=O)O2)cc1Cl` (stereo not drawn) [C(107), 6-[2-(3-chloro-4-methoxyphenyl)ethyl]-6-cyclorpentyl-4-hydroxy-3-[(pyridin-2-ylmethyl)thio]-5,6-dihydro-2H-pyran-2-one] is 160 nM; for `COc1ccc(CCC2(C3CCCC3)CC(O)=C(Sc3cccc(Cl)c3Cl)C(=O)O2)cc1Cl` (stereo not drawn) [C(108), 6-[2-(3-chloro-4-methoxyphenyl)ethyl]-6-cyclopentyl-3-[(2,3-dichlorophenyl)thio]-4-hydroxy-5,6-dihydro-2H-pyran-2-one] it is 210 nM; for `COc1ccc(CCC2(C3CCCC3)CC(O)=C(SCCc3ccccn3)C(=O)O2)cc1Cl` (stereo not drawn) [C(109), 6-[2-(3-Chloro-4-methoxy-phenyl)-ethyl]-6-cyclopentyl-4-hydroxy-3-(2-pyridin-2-yl-ethylsulfanyl)-5,6-dihydro-pyran-2-one] it is 900 nM.

As to `CC(C)(C#N)c1ccc(OCC2(C3CCCC3)CC(=O)CC(=O)O2)cc1F` (stereo not drawn) [C(110), 2-[4-(2-Cyclopentyl-4,6-dioxo-tetrahydro-pyran-2-ylmethoxy)-2-fluoro-phenyl]-2-methyl-propionitrile], the IC50 was 7600 nM. `Cc1cnc2nc(CC3=C(O)CC(COc4ccc(C(C)(C)C#N)c(F)c4)(C4CCCC4)OC3=O)nn2c1` (stereo not drawn) [C(111), 2-{4-[2-Cyclopentyl-4-hydroxy-5-(6-methyl-[1,2,4]triazolo[1,5-a]pyrimidin-2-ylmethyl)-6-oxo-3,6-dihydro-2H-pyran-2-ylmethoxy]-2-fluoro-phenyl}-2-methyl-propionitrile]: the IC50 was 395 nM. Still for that read-out and setting: for `Cc1cc(C)n2nc(CC3=C(O)CC(COc4ccc(C(C)(C)C#N)c(F)c4)(C4CCCC4)OC3=O)nc2n1` (stereo not drawn) [C(112), 2-{4-[2-Cyclopentyl-5-(5,7-dimethyl-[1,2,4]triazolo[1,5-a]pyrimidin-2-ylmethyl)-4-hydroxy-6-oxo-3,6-dihydro-2H-pyran-2-ylmethoxy]-2-fluoro-phenyl}-2-methyl-propionitrile] the value was 64 nM; for `N#CCC(=O)c1ccc(C#CC2(C3CCCC3)CC(=O)CC(=O)O2)cc1` (stereo not drawn) [E(1), 3-[4-(2-Cyclopentyl-4,6-dioxo-tetrahydro-pyran-2-ylethynyl)-phenyl]-3-oxo-propionitrile], 22000 nM. For the compound `N#CCC(=O)c1ccc(C#CC2(C3CCCC3)CC(=O)CC(=O)O2)s1` (stereo not drawn) [E(2), 3-[5-(2-Cyclopentyl-4,6-dioxo-tetrahydro-pyran-2-ylethynyl)-thiophen-2-yl]-3-oxo-propionitrile], the IC50 was 8200 nM. On the same count and under the same terms, for `N#CCc1cccc(C#CC2(C3CCCC3)CC(=O)CC(=O)O2)c1` (stereo not drawn) [E(3), [3-(2-Cyclopentyl-4,6-dioxo-tetrahydro-pyran-2-ylethynyl)-phenyl]-acetonitrile] the value was 65000 nM; for `Cc1cc(C#CCCC2(C3CCCC3)CC(=O)CC(=O)O2)c(C)cc1O` (stereo not drawn) [F(1), 6-Cyclopentyl-6-[4-(4-hydroxy-2,5-dimethyl-phenyl)-but-3-ynyl]-dihydro-pyran-2,4-dione], 7200 nM; for `NS(=O)(=O)c1cccc(C#CCCC2(C3CCCC3)CC(=O)CC(=O)O2)c1` (stereo not drawn) [F(2), 3-[4-(2-Cyclopentyl-4,6-dioxo-tetrahydro-pyran-2-yl)-but-1-ynyl]-benzenesulfonamide], 7200 nM. On the same count and under the same terms, the figure for `CSc1ccccc1C#CCCC1(C2CCCC2)CC(=O)CC(=O)O1` (stereo not drawn) [F(3), 6-Cyclopentyl-6-[4-(2-methylsulfanyl-phenyl)-but-3-ynyl]-dihydro-pyran-2,4-dione] is 8400 nM. Still for that read-out and setting: the figure for `O=C1CC(=O)OC(CCC#Cc2ccccc2OC(F)(F)F)(C2CCCC2)C1` (stereo not drawn) [F(4), 6-Cyclopentyl-6-[4-(2-trifluoromethoxy-phenyl)-but-3-ynyl]-dihydro-pyran-2,4-dione] is 5800 nM; for `O=C1CC(=O)OC(CCC#Cc2ccc(F)cc2)(C2CCCC2)C1` (stereo not drawn) [F(5), 6-Cyclopentyl-6-[4-(4-fluoro-phenyl)-but-3-ynyl]-dihydro-pyran-2,4-dione] it is 25000 nM; for `Cc1ccc(C#CCCC2(C3CCCC3)CC(=O)CC(=O)O2)cc1` (stereo not drawn) [F(6), 6-Cyclopentyl-6-(4-p-tolyl-but-3-ynyl)-dihydro-pyran-2,4-dione] it is 83000 nM.

Turning to `O=C1OC(CCC#Cc2cccc(O)c2)(C2CCCC2)CC(O)=C1Sc1nccs1` (stereo not drawn) [F(7), 6-Cyclopentyl-4-hydroxy-6-[4-(3-hydroxy-phenyl)-but-3-ynyl]-3-(thiazol-2-ylsulfanyl)-5,6-dihydro-pyran-2-one], the IC50 was determined as 7500 nM. On the same count and under the same terms, for `COC1=CC(=O)OC(CCc2ccc(OC)c(Cl)c2)(C2CCCC2)C1` (stereo not drawn) [G(3), 6-[2-(3-Chloro-4-methoxy-phenyl)-ethyl]-6-cyclopentyl-4-methoxy-5,6-dihydro-pyran-2-one] the value was 29000 nM; for `O=C1CC(=O)OC(CCNC(=O)CCc2ccco2)(C2CCCC2)C1` (stereo not drawn) [H(1), N-[2-(2-Cyclopentyl-4,6-dioxo-tetrahydro-pyran-2-yl)-ethyl]-3-furan-2-yl-propionamide], 1000 nM; for `O=C1CC(=O)OC(CCNC(=O)c2ccco2)(C2CCCC2)C1` (stereo not drawn) [H(2), Furan-2-carboxylic acid [2-(2-cyclopentyl-4,6-dioxo-tetrahydro-pyran-2-yl)-ethyl]-amide], 51000 nM. On the same count and under the same terms, for `O=C1CC(=O)OC(CCCNC(=O)CCc2ccco2)(C2CCCC2)C1` (stereo not drawn) [H(3), N-[3-(2-Cyclopentyl-4,6-dioxo-tetrahydro-pyran-2-yl)-propyl]-3-furan-2-yl-propionamide] the value was 1200 nM; for `Cc1cc(C)n2nc(SC3=C(O)CC(CCNC(=O)CCc4ccco4)(C4CCCC4)OC3=O)nc2n1` (stereo not drawn) [H(4), N-{2-[2-Cyclopentyl-5-(5,7-dimethyl-[1,2,4]triazolo[1,5-a]pyrimidin-2-ylsulfanyl)-4-hydroxy-6-oxo-3,6-dihydro-2H-pyran-2-yl]-ethyl}-3-furan-2-yl-propionamide], 60000 nM.

By inhibition is commonly meant the relative decrease from the control value, in per cent. What is called IC50 is the concentration needed to halve the response being measured.
